We go through three molecules from patent US6716437B1, “Topical composition and method for enhancing lipid barrier synthesis” (E-L Management Corporation, priority 1993, dated 2004).

“Also recorded” adds a separate entry of the source.

In assay [1] the test system is Living skin models. The assay is described as follows: Living skin models: ceramide/lipid production by HPTLC/TLC. Format: cell-based. The method, then: A. Determination of cafestol activity. Living skin models (#1301) are obtained from Advanced Tissue Sciences and treated with cafestol acetate(Sigma)by addition of a stock solution prepared in cell culture medium in a dose-dependent manner from 0.01 mg/ml to 1.0 mg/ml, or in a time-dependent manner at 0.5 mg/ml for up to 7 days. All experiments are conducted with untreated controls. At each dose or time point, the skin models are homogenized and the lipids extracted with chloroform/methanol(2:1), taken to dryness, and resuspended in chloroform. Samples are chromatographed on HPTLC and their lipid composition visualized by degradative charring (Melnick et al., J. Invest. Dermatol 92:231-234, 1989)
B. Comparison of cafestol activity with coffee bean oil activity. To compare the lipid enhancing activity of cafestol with that of coffee bean oil, living skin models are treated over a period of five days with increasing amounts of cafestol acetate in a range from 0.01 mg/ml to 1.0 mg/ml. A parallel set of living skin squares is also tested with a sample of coffee bean oil (Robeco). At the end of the incubation period, each skin square is homogenized and its lipids extracted in chloroform/methanol (2:1). This is followed by TLC analysis. Ceramides are identified by degradative charring and comparison to ceramide standards. Densitometric analysis of the TLC plate is carried out with an Optimas Bioscan.

Another assay has as its system skin barrier. The experiment in a line: Clinical study: skin barrier function by tape stripping and TEWL. It is filed as in vivo, human. The conditions noted are these: twice a day, volar forearm. The method, then:
B. Effect of cafestol on skin barrier function. Ten healthy female subjects, between the ages of 25-45. with normal skin on their forearms are tested in this study. […] They acclimate in the environmental room at 40% relative humidity and 70° F. for 20 minutes before their baseline measurements are recorded. They are then randomly assigned to one of two treatment groups.
Group I (n=5) receives treatment containing cafestol at 0.1% to use on one arm and a placebo to use on the other arm. Group II (n+5) uses a treatment containing 0.2% cafestol palmitate on one arm and a treatment containing 0.1% cafestol acetate on the other arm. The subjects self-administer the treatment twice a day on the lower part of their volar forearms except on the day of testing.
A five cm by two cm are is marked using a template on the lower inner forearm and initial water evaporation measurements are taken in three separate spots approximately 1 cm apart in a row. Five cm of the cello-tape is placed on the skin in the outlined area, starting from the top and after one firm stroke in each direction is removed by gently pulling in a downward direction parallel to the skin. The procedure is repeated and water evaporation is measured after every five to ten strips until the barrier is broken, as indicated by a minimum water evaporation of 18 g/sq m hr on one of the three spots. The subjects' transepidermal water loss (TEWL) is monitored on the challenged sites after 1, 2 and 3 days in order to measure the ability of the skin to repair itself. After 5 and 10 days of product treatment, the above procedure is repeated under the same test conditions on an adjacent new site.
TEWL is measured with the Servo Med Evaporimeter, fitted with a chimney and gauze. The subjects are in a relaxed inclined position, and are not allowed to converse or get excited. TEWL is recorded automatically using the Dia-Stron computer program set at a 30 second data acquisition time and a 15 second plateau.
B. Barrier strength measurements. Barrier strength is evaluated by challenging the skin with tape stripping and measuring the water evaporation (WE). To describe the experimental data, curve fitting Linear Regression Analysis based on least-square method is performed on each individual's data and the number of tape strippings required to reach a WE of 18 g/sq m/hr is recorded for each visit. The number of tape strippings required to perturb the barrier is a measure of its strength.

The subject of another assay is stratum corneum lipids. The assay is described as follows: Clinical study: ceramide levels on human skin by thin layer chromatography. It is filed as in vivo. The method, then: A. Determination of cafestol activity on lipid production. […] A short clinical study, consisting of five subjects, is then carried out under the same conditions in order to test the ability of cafestol acetate to raise ceramide levels. At zero time, ethanol washes are performed in order to remove stratum corneum lipids from both arms. Cafestol acetate, prepared in ethanol at a concentration of 1 mg/ml, is applied twice a day with a pump spray to the right volar forearm. As a control, ethanol is applied at the corresponding site at the left arm. On day three, stratum corneum lipids are again removed and both zero time and day three lipids from both arms are evaluated by thin layer chromatography as described above.

In assay [2] the test system is Living skin models. The assay is described as follows: Histology of treated living skin models. It is filed as cell-based. The conditions noted are these: living skin squares, fixed, sectioned, hematoxylin/eosin. The method, then: C. Histology. To determine the histological effect of cafestol application to living skin, skin squares are treated as described above; at the end of the incubation period, samples are fixed, sectioned and stained with hematoxylin/eosin.

As to `CC(=O)OC[C@@]1(O)C[C@@]23CC[C@@H]4c5ccoc5CC[C@@]4(C)[C@@H]2CC[C@@H]1C3` [cafestol acetate], the “ceramides as a function of dose (HPTLC)” value in the assay with Living skin models [1] (0.01 mg/ml to 1.0 mg/ml) was “increase in ceramide production with increasing dosage; also recorded: selective increase in ceramides as a function of dose”. The “ceramides as a function of time (HPTLC)” value in the assay with Living skin models [1] (0.5 mg/ml for up to 7 days) was “presence of ceramides after only one day of application, reaching maximum concentrations after three days”. Further, the “increase in barrier strength (number of tape strippings to reach WE of 18 g/sq m/hr)” value in the assay on skin barrier (after 5 days of treatment) stood at 10%; with skin barrier (after 10 days of treatment) it was 38%.
Consider `CCCCCCCCCCCCCCCC(=O)OC[C@@]1(O)C[C@@]23CC[C@@H]4c5ccoc5CC[C@@]4(C)[C@@H]2CC[C@@H]1C3` [cafestol palmitate], for which the “increase in barrier strength (number of tape strippings to reach WE of 18 g/sq m/hr)” value came to 8% in the assay with skin barrier (after 5 days of treatment) and 43% in the assay with skin barrier (after 10 days of treatment).
As to `C[C@@]12CCc3occc3[C@H]1CC[C@@]13C[C@@H](CC[C@H]12)[C@@](O)(CO)C3` [cafestol], the “ceramide production, comparison with coffee bean oil (TLC, densitometric scan)” value in the assay with Living skin models [1] (five days, 0.01 mg/ml to 1.0 mg/ml) is “dose-dependent increase in ceramide production”. In addition, the “ceramide I level” value was “increased levels of ceramide I in four of the five subjects” in the assay on stratum corneum lipids (five subjects, 1 mg/ml in ethanol twice a day, volar forearm, day three) and “elevated” in the assay with stratum corneum lipids (initial test, single individual, applied directly to skin over three days). Moreover, in the assay on stratum corneum lipids (the subject without ceramide I increase, 1 mg/ml in ethanol twice a day, day three), the “ceramide IV level” value is recorded as “increase in ceramide IV”. Also, in the assay on Living skin models [2], the “stratum corneum (histological analysis)” value is given as “clear increase in stratum corneum”.
